Test results as given in ChEMBL document CHEMBL4828735, “Discovery of N-((3S,4S)-4-(3,4-Difluorophenyl)piperidin-3-yl)-2-fluoro-4-(1-methyl-1H-pyrazol-5-yl)benzamide (Hu7691), a Potent and Selective Akt Inhibitor That Enables Decrease of Cutaneous Toxicity” (J Med Chem, 2021).
Active and inactive are the calls of the source. The rule behind the calls is not given here.

What was measured:
[1] = target: Cytochrome P450 2D6 (Homo sapiens, UniProt P10635); experiment: Inhibition of CYP2D6 (unknown origin); type: ADME
Cytochrome P450 2D6, sequence (P10635 whole entry): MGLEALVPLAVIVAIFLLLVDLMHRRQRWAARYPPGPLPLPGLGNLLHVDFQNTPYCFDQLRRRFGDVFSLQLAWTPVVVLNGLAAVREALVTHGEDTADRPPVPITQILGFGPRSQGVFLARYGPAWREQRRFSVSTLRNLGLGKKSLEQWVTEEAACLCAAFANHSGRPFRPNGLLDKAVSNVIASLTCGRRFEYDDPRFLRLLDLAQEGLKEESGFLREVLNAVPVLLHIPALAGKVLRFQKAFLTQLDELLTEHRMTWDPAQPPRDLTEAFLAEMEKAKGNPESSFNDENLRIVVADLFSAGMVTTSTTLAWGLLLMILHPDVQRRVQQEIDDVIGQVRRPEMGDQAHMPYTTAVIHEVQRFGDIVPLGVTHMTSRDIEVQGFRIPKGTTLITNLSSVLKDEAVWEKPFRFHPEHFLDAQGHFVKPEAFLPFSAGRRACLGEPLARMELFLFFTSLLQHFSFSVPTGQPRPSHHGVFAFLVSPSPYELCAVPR

[2] = system: KHOS/NP; experiment: Antiproliferative activity against human KHOS cells assessed as inhibition of cell growth incubated for 72 hrs by SRB method; type: functional, cell-based
[3] = Toxicity in mouse assessed as brownish watery stool at 150 mg/kg; type: organism-based; conditions: in vivo
[4] = system: KHOS/NP; experiment: Antitumor activity against human KHOS cells xenografted in dosed BALB/c nude mouse assessed as tumor growth inhibition at 25 mg/kg, ig administered once daily for 22 days; type: functional, organism-based; conditions: time 22.0 day
[5] = Toxicity in mouse assessed as reduction in activity at 150 mg/kg; type: organism-based; conditions: in vivo
[6] = target: Ribosomal protein S6 kinase beta-1 (Homo sapiens, UniProt P23443); experiment: Inhibition of P70S6K (unknown origin)
[7] = Antiproliferative activity against human HPDE6c7 cells assessed as inhibition of cell growth incubated for 72 hrs by SRB method; type: cell-based; conditions: HPDE6c7, 72 h
[8] = organism: Homo sapiens; experiment: Inhibition of PKA (unknown origin) at 0.5 uM
[9] = Toxicity in mouse assessed as death at 250 mg/kg; type: organism-based; conditions: in vivo
[10] = Microsomal stability in rat liver microsomes assessed as half life at 50 uM preincubated for 5 mins with NADPH followed by compound addition and measured upto 60 mins by LC-MS/MS analysis; type: ADME, Microsome
[11] = Drug metabolism in po dosed Sprague-Dawley rat feces assessed as M1 metabolite formation measured upto 24 hrs by UPLC-TOF-MS/MS analysis; type: ADME, organism-based; conditions: in vivo
[12] = system: 786-0; experiment: Antitumor activity against human 786-0 cells xenografted in dosed BALB/c nude mouse assessed as tumor growth inhibition at 12.5 to 50 mg/kg, ig administered once daily for 22 days; type: functional; conditions: dose 12.5-50 mg/kg, time 22 day
[13] = AUC(0 to infinity) in Sprague-Dawley rat at 15 mg/kg, ig measured upto 72 hrs by LC-MS/MS analysis; type: ADME, organism-based; design: route […], dose 15 mg/kg, time <=72; conditions: in vivo, po
[14] = Microsomal stability in dog liver microsomes assessed as half life at 50 uM preincubated for 5 mins with NADPH followed by compound addition and measured upto 60 mins by LC-MS/MS analysis; type: ADME, Canis lupus familiaris, Microsome
[15] = Toxicity in Sprague-Dawley rat assessed as effect on thymus at 25 to 75 mg/kg administered daily for 4 weeks by histopathological analysis; type: organism-based; conditions: in vivo, 672 h, dose 25-75 mg/kg
[16] = system: Bel-7402; experiment: Antiproliferative activity against human Bel-7402 cells assessed as inhibition of cell growth incubated for 72 hrs by SRB method; type: functional, cell-based; conditions: Bel-7402, 72 h
[17] = Toxicity in BALB/c nude mouse xenografted with human KHOS cells assessed as change in body weight at 12.5 to 50 mg/kg, ig administered once daily for 22 days; type: organism-based; conditions: in vivo, po, 528 h, dose 12.5-50 mg/kg, time 22 day
[18] = target: Cytochrome P450 2C8 (Homo sapiens, UniProt P10632); experiment: Inhibition of CYP2C8 (unknown origin); type: ADME
Cytochrome P450 2C8, sequence (P10632 whole entry): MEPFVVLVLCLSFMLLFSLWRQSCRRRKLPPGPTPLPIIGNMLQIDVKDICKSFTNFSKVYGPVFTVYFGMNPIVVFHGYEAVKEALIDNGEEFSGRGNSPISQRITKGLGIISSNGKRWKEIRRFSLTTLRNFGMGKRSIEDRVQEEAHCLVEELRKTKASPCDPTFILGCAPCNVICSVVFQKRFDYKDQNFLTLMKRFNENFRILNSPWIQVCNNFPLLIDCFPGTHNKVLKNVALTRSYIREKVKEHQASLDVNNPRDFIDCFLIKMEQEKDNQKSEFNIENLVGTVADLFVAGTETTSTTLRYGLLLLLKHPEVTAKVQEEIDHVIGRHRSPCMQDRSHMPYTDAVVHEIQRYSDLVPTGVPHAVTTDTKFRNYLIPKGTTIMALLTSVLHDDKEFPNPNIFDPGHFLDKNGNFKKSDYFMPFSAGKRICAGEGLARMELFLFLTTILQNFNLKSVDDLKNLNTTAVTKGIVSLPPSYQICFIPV

[19] = system: SMMC-7721; experiment: Antiproliferative activity against human SMMC-7721 cells assessed as inhibition of cell growth incubated for 72 hrs by SRB method; type: functional, cell-based; conditions: SMMC-7721, 72 h
[20] = Drug metabolism in po dosed Sprague-Dawley rat blood assessed as M1 metabolite formation measured upto 6 hrs by UPLC-TOF-MS/MS analysis; type: ADME, organism-based; conditions: in vivo
[21] = target: Cytochrome P450 1A2 (Homo sapiens, UniProt P05177); experiment: Inhibition of CYP1A2 (unknown origin); type: ADME
Cytochrome P450 1A2, sequence (P05177 whole entry): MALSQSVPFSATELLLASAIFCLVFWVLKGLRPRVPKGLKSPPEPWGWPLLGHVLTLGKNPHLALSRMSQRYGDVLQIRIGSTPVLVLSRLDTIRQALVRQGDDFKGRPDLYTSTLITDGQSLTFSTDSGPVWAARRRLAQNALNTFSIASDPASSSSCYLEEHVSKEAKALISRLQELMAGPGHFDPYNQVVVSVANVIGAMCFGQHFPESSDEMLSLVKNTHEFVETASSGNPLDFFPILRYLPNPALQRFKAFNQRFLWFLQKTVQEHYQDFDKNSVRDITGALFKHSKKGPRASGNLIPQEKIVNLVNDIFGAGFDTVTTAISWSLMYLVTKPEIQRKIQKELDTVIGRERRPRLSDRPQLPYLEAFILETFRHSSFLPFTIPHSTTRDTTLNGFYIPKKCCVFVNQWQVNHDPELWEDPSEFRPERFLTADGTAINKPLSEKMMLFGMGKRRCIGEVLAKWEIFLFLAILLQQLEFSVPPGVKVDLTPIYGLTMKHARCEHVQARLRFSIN

[22] = AUC(0 to infinity) in Beagle dog at 20 mg/kg, ig measured upto 96 hrs by LC-MS/MS analysis; type: ADME, organism-based, Canis lupus familiaris; design: route […], dose 20 mg/kg, time <=96; conditions: in vivo, po
[23] = Drug metabolism in po dosed Sprague-Dawley rat blood assessed as M3 metabolite formation measured upto 6 hrs by UPLC-TOF-MS/MS analysis; type: ADME, organism-based; conditions: in vivo
[24] = Antiproliferative activity against human 95-D cells assessed as inhibition of cell growth incubated for 72 hrs by SRB method; type: functional, cell-based
[25] = Tmax in Beagle dog at 20 mg/kg, ig measured upto 96 hrs by LC-MS/MS analysis; type: ADME, organism-based, Canis lupus familiaris; conditions: in vivo, po
[26] = target: Phosphatidylinositol 4,5-bisphosphate 3-kinase catalytic subunit alpha isoform (Homo sapiens, UniProt P42336); experiment: Inhibition of PI3Kalpha (unknown origin)
Phosphatidylinositol 4,5-bisphosphate 3-kinase catalytic subunit alpha isoform, sequence (P42336 whole entry, canonical isoform): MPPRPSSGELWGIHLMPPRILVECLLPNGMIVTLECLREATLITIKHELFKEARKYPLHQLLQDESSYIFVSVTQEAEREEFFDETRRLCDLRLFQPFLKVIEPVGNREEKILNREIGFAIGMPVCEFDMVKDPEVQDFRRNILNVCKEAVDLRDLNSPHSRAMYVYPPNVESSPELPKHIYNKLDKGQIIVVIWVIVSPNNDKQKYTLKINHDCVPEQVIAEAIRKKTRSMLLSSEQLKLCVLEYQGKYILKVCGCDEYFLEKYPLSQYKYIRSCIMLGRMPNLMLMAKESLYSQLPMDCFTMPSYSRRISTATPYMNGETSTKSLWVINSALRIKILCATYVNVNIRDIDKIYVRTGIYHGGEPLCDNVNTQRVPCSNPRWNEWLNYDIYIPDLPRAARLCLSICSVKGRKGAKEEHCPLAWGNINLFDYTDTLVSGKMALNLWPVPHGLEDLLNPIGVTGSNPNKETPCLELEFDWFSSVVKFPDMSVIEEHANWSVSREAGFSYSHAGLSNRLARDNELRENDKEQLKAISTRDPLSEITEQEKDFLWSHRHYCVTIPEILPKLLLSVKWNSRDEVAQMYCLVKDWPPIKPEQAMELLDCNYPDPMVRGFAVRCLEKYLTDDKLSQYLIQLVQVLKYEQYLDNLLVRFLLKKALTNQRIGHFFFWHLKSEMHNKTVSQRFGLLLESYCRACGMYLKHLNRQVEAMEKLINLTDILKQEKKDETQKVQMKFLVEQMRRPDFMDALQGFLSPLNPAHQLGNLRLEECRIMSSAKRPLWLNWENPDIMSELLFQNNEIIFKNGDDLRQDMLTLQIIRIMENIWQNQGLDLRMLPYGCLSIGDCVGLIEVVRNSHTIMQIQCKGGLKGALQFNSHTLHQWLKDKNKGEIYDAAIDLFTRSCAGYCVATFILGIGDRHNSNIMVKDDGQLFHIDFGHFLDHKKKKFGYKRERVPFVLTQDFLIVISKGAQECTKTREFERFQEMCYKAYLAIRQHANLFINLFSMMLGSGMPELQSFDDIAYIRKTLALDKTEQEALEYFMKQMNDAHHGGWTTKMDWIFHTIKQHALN

[27] = Toxicity in Sprague-Dawley rat assessed as appearance of skin lesions at 25 to 75 mg/kg administered daily for 4 weeks; type: organism-based; conditions: in vivo, 672 h, dose 25-75 mg/kg
[28] = Cmax in Beagle dog at 20 mg/kg, ig measured upto 96 hrs by LC-MS/MS analysis; type: ADME, organism-based, Canis lupus familiaris; design: route […], dose 20 mg/kg, time <=96; conditions: in vivo, po
[29] = Toxicity in Sprague-Dawley rat assessed as effect on ovaries at 25 to 75 mg/kg administered daily for 4 weeks by histopathological analysis; type: organism-based; conditions: in vivo, 672 h, dose 25-75 mg/kg
[30] = Toxicity in Sprague-Dawley rat assessed as change in cell population at 25 to 75 mg/kg administered daily for 4 weeks; type: organism-based; conditions: in vivo, 672 h, dose 25-75 mg/kg
[31] = Toxicity in mouse assessed as weight loss at 150 mg/kg; type: organism-based; conditions: in vivo
[32] = system: SK-OV-3; experiment: Antiproliferative activity against human SK-OV-3 cells assessed as inhibition of cell growth incubated for 72 hrs by SRB method; type: functional, cell-based; conditions: SK-OV-3, 72 h
[33] = system: 786-0; experiment: Antitumor activity against human 786-0 cells xenografted in ig dosed BALB/c nude mouse assessed as tumor growth inhibition administered once daily for 22 days; type: functional, organism-based; conditions: dose 12.5-50 mg/kg, time 22.0 day
[34] = target: Serine/threonine-protein kinase Sgk1 (Homo sapiens, UniProt O00141); experiment: Inhibition of SGK (unknown origin)
Serine/threonine-protein kinase Sgk1, sequence (O00141 whole entry): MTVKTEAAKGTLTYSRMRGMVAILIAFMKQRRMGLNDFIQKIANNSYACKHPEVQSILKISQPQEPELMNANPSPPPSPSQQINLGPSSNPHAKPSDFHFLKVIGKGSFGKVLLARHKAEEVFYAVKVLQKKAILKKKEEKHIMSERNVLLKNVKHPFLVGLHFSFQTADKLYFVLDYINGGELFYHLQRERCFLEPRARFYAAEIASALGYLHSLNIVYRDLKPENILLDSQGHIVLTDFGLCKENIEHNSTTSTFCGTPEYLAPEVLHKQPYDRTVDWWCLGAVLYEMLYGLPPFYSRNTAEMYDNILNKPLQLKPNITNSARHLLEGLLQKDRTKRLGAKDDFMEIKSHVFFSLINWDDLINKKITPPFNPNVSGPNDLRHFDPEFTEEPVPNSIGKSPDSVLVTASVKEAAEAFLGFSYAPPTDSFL

[35] = Toxicity in Sprague-Dawley rat assessed as change in biochemical parameters at 25 to 75 mg/kg administered daily for 4 weeks; type: organism-based; conditions: in vivo, 672 h, dose 25-75 mg/kg
[36] = Drug metabolism in po dosed Sprague-Dawley rat bile assessed as M1 metabolite formation measured upto 24 hrs by UPLC-TOF-MS/MS analysis; type: ADME, organism-based; conditions: in vivo
[37] = target: Serine/threonine-protein kinase Chk1 (Homo sapiens, UniProt O14757); experiment: Inhibition of CHK1 (unknown origin)
Serine/threonine-protein kinase Chk1, sequence (O14757 whole entry): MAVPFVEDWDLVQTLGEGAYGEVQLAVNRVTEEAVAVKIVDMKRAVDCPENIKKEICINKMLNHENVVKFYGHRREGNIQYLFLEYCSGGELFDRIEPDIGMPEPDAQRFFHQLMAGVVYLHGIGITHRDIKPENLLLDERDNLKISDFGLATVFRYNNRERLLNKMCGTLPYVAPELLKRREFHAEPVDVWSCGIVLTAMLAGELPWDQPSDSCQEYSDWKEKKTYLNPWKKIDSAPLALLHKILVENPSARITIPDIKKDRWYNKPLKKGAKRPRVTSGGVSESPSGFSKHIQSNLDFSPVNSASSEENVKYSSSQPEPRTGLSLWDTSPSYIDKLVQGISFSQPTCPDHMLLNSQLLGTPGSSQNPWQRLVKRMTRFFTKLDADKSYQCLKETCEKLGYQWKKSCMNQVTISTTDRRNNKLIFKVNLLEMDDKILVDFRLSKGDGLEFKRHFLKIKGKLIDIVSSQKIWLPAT

[38] = target: Tyrosine-protein kinase ABL1 (Homo sapiens, UniProt P00519); experiment: Inhibition of ABL (unknown origin)
Tyrosine-protein kinase ABL1, sequence (P00519 whole entry): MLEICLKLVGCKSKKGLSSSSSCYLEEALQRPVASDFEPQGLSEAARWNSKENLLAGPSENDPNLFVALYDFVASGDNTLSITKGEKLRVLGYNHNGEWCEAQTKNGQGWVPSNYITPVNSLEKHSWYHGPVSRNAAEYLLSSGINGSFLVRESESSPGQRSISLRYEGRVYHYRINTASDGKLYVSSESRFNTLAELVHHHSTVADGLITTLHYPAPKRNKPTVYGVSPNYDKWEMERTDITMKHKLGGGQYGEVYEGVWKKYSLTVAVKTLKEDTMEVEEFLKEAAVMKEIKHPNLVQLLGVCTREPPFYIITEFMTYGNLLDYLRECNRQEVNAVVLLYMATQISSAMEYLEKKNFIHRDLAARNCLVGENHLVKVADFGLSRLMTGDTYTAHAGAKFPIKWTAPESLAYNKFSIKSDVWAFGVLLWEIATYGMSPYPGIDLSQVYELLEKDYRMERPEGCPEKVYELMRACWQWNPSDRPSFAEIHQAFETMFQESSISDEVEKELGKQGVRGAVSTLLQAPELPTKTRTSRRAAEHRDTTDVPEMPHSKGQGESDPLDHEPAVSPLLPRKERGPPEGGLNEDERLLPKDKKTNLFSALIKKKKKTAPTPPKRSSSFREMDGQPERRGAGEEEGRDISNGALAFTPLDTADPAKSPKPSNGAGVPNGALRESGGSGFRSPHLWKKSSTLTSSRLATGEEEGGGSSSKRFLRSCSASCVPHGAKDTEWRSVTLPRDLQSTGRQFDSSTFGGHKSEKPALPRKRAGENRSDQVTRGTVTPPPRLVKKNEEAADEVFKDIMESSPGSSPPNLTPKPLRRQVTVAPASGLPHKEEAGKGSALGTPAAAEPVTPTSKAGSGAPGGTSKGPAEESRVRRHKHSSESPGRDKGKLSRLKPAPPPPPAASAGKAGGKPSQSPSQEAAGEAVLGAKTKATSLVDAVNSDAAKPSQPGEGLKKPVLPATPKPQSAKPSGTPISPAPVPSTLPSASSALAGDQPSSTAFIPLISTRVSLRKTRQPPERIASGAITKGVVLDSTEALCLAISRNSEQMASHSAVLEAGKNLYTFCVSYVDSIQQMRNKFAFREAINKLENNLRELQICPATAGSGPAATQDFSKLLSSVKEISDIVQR

[39] = target: RAC-gamma serine/threonine-protein kinase (Homo sapiens, UniProt Q9Y243); experiment: Inhibition of AKT3 (unknown origin)
[40] = system: HaCaT; experiment: Antiproliferative activity against human HaCaT cells assessed as inhibition of cell growth incubated for 72 hrs by SRB assay; type: cell-based
[41] = Toxicity in Sprague-Dawley rat assessed as effect on jejunum at 25 to 75 mg/kg administered daily for 4 weeks by histopathological analysis; type: organism-based; conditions: in vivo, 672 h, dose 25-75 mg/kg
[42] = Toxicity in Sprague-Dawley rat assessed as effect on stomach at 25 to 75 mg/kg administered daily for 4 weeks by histopathological analysis; type: organism-based; conditions: in vivo, 672 h, dose 25-75 mg/kg
[43] = Half life in Sprague-Dawley rat at 15 mg/kg, ig measured upto 72 hrs by LC-MS/MS analysis; type: ADME, organism-based; conditions: in vivo, po
[44] = Toxicity in BALB/c nude mouse xenografted with human 786-0 cells assessed as mortality at 12.5 to 50 mg/kg, ig administered once daily for 22 days; type: organism-based; conditions: in vivo, po, 528 h, dose 12.5-50 mg/kg, time 22 day

Cl.Cn1nccc1-c1ccc(C(=O)N[C@@H]2CNCC[C@H]2c2ccc(F)c(F)c2)c(F)c1
IC50 [1]: > 100 µM | IC50 [2]: 7.47 µM | Activity [3]: Toxic | Activity [4]: Active | Activity [5]: Toxic | IC50 [6]: 0.229 µM | IC50 [7]: 16.1 µM | inhibition [8]: Active | Activity [9]: Toxic | half-life at 50 µM [10]: 1.16 h | Drug metabolism [11]: Metabolite_Detected | TGI [12]: 70% | AUC(0-inf) [13]: 2820 ng·h/mL | half-life at 50 µM [14]: 5.6 h | Activity [15]: Non-Toxic | IC50 [16]: 26.6 µM | Activity [17]: Non-Toxic | IC50 [18]: > 100 µM | IC50 [19]: 19.8 µM | Drug metabolism [20]: Metabolite_Detected | IC50 [21]: > 100 µM | AUC(0-inf) [22]: 36300 ng·h/mL | Drug metabolism [23]: Metabolite_Detected | IC50 [24]: 1.03 µM | Tmax [25]: 8.67 h | IC50 [26]: > 10 µM | Activity [27]: Non-Toxic | Cmax [28]: 906 ng/mL | Activity [29]: Non-Toxic | Activity [30]: Non-Toxic | Activity [31]: Toxic | IC50 [32]: 4.71 µM | Activity [33]: Dose-Dependent Effect | IC50 [34]: 1.01 µM | Activity [35]: Non-Toxic | Drug metabolism [36]: Metabolite_Detected | IC50 [37]: > 10 µM | IC50 [38]: > 10 µM | IC50 [39]: 0.028 µM | IC50 [40]: 15.2 µM | Activity [41]: Non-Toxic | Activity [42]: Non-Toxic | half-life [43]: 8.68 h | Activity [44]: Non-Toxic
